Columns and labels:
Thymidine kinase [1] = target: T1, Thymidine kinase (Human herpesvirus 1 (strain SC16) (HHV-1) (Human herpes simplex virus1), UniProt P06479); test: Inhibitory concentration against Herpes simplex virus type 1 thymidine kinase(HSV-1 TK); parameters: species or system Herpes simplex virus (type 1 / strain SC16)
T1 sequence (P06479 whole entry): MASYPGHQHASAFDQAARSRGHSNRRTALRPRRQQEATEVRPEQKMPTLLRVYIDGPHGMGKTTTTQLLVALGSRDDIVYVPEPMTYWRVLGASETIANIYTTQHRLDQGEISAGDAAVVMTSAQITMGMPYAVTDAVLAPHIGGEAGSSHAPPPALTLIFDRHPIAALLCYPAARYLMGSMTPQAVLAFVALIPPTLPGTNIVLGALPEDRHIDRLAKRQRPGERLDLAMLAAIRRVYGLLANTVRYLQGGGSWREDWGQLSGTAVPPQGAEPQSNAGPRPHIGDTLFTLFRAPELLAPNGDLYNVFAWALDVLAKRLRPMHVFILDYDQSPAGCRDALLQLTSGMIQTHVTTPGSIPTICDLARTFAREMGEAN

[2] = target: T2, Thymidine kinase, cytosolic (Homo sapiens, UniProt P04183); test: Inhibitory concentration against cytosolic thymidine kinase (TK-1)
T2 sequence (P04183 whole entry): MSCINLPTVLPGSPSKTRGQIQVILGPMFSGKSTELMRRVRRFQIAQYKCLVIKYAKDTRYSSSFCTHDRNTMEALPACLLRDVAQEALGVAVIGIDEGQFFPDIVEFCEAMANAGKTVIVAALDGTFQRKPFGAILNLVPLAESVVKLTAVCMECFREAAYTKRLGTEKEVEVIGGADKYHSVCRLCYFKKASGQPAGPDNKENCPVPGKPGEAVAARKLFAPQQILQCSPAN

[3] = target: T3, Thymidine kinase 2, mitochondrial (Homo sapiens, UniProt O00142); test: Inhibitory concentration against mitochondrial thymidine kinase (TK-2)
T3 sequence (O00142 whole entry): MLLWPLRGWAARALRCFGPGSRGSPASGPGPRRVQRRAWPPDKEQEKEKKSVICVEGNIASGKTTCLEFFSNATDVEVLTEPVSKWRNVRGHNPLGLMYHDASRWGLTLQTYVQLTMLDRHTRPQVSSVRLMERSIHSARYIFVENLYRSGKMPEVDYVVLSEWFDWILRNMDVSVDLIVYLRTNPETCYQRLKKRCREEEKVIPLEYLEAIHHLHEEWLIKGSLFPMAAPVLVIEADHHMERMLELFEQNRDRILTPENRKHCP

Thymidine kinase [4] = target: T4, Thymidine kinase (Varicella-zoster virus (strain Dumas) (HHV-3) (Human herpesvirus 3), UniProt P09250); test: Inhibitory concentration against Varicella- zoster virus thymidine kinase(VZV TK); parameters: species or system Human alphaherpesvirus 3
T4 sequence (P09250 whole entry): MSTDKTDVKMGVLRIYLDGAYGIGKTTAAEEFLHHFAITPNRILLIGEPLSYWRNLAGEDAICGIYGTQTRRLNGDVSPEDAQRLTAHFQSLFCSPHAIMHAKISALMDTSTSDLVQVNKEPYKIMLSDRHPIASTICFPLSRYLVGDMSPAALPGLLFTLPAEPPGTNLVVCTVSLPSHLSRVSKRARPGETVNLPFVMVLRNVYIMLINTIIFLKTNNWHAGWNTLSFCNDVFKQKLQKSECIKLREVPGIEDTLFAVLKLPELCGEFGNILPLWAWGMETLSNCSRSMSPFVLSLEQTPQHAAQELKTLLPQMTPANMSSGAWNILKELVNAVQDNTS

Deoxynucleoside kinase = target: T5, Deoxynucleoside kinase (Drosophila melanogaster, UniProt Q9XZT6); test: Inhibitory concentration against Drosophila melanogaster deoxyribonucleoside kinase (Dm-dNK)
T5 sequence (Q9XZT6 whole entry): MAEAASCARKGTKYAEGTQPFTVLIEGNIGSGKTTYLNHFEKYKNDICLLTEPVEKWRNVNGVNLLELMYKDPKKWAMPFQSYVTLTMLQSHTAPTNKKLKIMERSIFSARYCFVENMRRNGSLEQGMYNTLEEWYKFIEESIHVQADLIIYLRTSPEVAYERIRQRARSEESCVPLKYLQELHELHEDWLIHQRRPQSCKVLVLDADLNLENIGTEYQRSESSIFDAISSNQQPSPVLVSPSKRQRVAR

Compound | IC50 (Thymidine kinase [1]) | IC50 [2] | IC50 [3] | IC50 (Thymidine kinase [4]) | IC50 (Deoxynucleoside kinase)
Nc1ccn([C@@H]2O[C@H](CO)[C@@H](O)[C@@H]2O)c(=O)n1 [CYTARABINE] | > 1000 µM | > 1000 µM | > 1000 µM | > 1000 µM | 
Cc1cn([C@@H]2O[C@H](CO)[C@@H](O)[C@@H]2O)c(=O)[nH]c1=O | 24 µM | > 1000 µM | 285 µM | 17 µM | 65 µM
Cc1cn([C@@H]2O[C@H](CO)[C@@H](O)[C@H]2OCc2ccccc2)c(=O)[nH]c1=O | > 1000 µM | > 1000 µM | 801 µM | > 1000 µM | > 1000 µM
O=c1[nH]c(=O)n(C2O[C@H](CO)[C@@H](O)[C@@H]2O)cc1/C=C\Br (some centres not stated) | 4.3 µM | > 500 µM | 43 µM | 3.3 µM | 31.6 µM
CCCCCCCCCCCC(=O)O[C@H]1[C@H](O)[C@@H](CO)O[C@H]1n1cc(C)c(=O)[nH]c1=O | > 1000 µM | > 1000 µM | 28 µM | > 1000 µM | > 1000 µM
CCCCC(=O)O[C@H]1[C@H](O)[C@@H](CO)O[C@H]1n1cc(C)c(=O)[nH]c1=O | > 1000 µM | > 1000 µM | > 1000 µM | > 1000 µM | > 1000 µM
CCCCCCCC(=O)O[C@H]1[C@H](O)[C@@H](CO)O[C@H]1n1cc(/C=C/Br)c(=O)[nH]c1=O | > 1000 µM | > 1000 µM | 6.3 µM | 718 µM | 178 µM
CCCCCCCCCC(=O)O[C@H]1[C@H](O)[C@@H](CO)O[C@H]1n1cc(C)c(=O)[nH]c1=O | > 1000 µM | > 1000 µM | 27 µM | > 1000 µM | 872 µM
CCCCCCCCCC(=O)O[C@H]1[C@H](O)[C@@H](CO)O[C@H]1n1cc(/C=C/Br)c(=O)[nH]c1=O | > 1000 µM | > 1000 µM | 6.8 µM | 845 µM | 163 µM
CCCCCCCCO[C@H]1[C@H](O)[C@@H](CO)O[C@H]1n1ccc(N)nc1=O | > 1000 µM | > 1000 µM | > 1000 µM | > 1000 µM | 
CCCCCCCCO[C@H]1[C@H](O)[C@@H](CO)O[C@H]1n1cc(C)c(=O)[nH]c1=O | > 1000 µM | > 1000 µM | 120 µM | > 1000 µM | > 1000 µM
COCC(=O)O[C@H]1[C@H](O)[C@@H](CO)O[C@H]1n1cc(/C=C/Br)c(=O)[nH]c1=O | 84 µM | > 1000 µM | 402 µM | 35 µM | 

From ChEMBL document CHEMBL1134069 (Bioorg Med Chem Lett, 2001)
